Consider 27 compounds from patent US10858360B2, “Tricyclic gyrase inhibitors” (priority 2011, dated 2020).

Molecules are shown by their SMILES. Converted amounts (≈) assume the structure as drawn. Read-outs that look alike come from different tables or passages of the source.

For one assay, the system named is E. coli ATCC 25922. In words: MIC, E. coli ATCC 25922. Type of assay: cell-based. The conditions noted are these: for MIC: Escherichia coli, ATCC25922, E. coli.
Another assay has as its system S. aureus ATCC 13709. In words: MIC, S. aureus ATCC 13709 (Alamar Blue broth microdilution). Conditions: for MIC: Staphylococcus aureus, ATCC13709, S. aureus. Type of assay: cell-based. Background: Alamar Blue is a resazurin reagent that responds to reducing activity.
Setting [1] is: Alamar Blue read after overnight incubation at 35° C.
Where [2] appears, read: E. coli, Alamar Blue read after overnight incubation at 35° C.
Setting [3] is: S. aureus, Alamar Blue read after overnight incubation at 35° C.

With `CNc1cccc2c1[nH]c1nc(Sc3cnc4cccnc4c3)nc(N3CC4CCCNC4C3)c12` (stereo not drawn) [1.28], the results for the MIC in the assay with E. coli ATCC 25922 (setting [1]) and against S. aureus ATCC 13709 (setting [1]) were 16 µg/mL (≈ 33.2 µM) and 4 µg/mL (≈ 8.29 µM), respectively. On to `CNc1cc(F)cc2c1[nH]c1nc(Oc3ccc4c(c3)C(=O)NC4)nc(N3CC4CCNC4C3)c12` (stereo not drawn) [4.269], for which the “MIC Ec” value with E. coli ATCC 25922 (setting [2]) turned out to be 4 µg/mL (≈ 8.45 µM). In the assay with S. aureus ATCC 13709 (setting [3]), the “MIC Sa” value is ≤0.5 µg/mL.

`CNc1cc(F)cc2c1[nH]c1nc(Oc3cnc(C)nc3)nc(N3CC(NC(=O)C(N)CO)C4(CC4)C3)c12` (stereo not drawn) [4.124]: the “MIC Ec” value with E. coli ATCC 25922 (setting [2]) worked out at 8 µg/mL (≈ 15.3 µM). In addition, in the assay with S. aureus ATCC 13709 (setting [3]), the “MIC Sa” value is ≤0.5 µg/mL. As for `CNc1cc(F)cc2c1[nH]c1nc(Sc3cnc4ccc[n+]([O-])c4c3)nc(N3CCC4(CC4N)C3)c12` (stereo not drawn) [1.64], the MIC in the assay with E. coli ATCC 25922 (setting [1]) and with S. aureus ATCC 13709 (setting [1]) was ≤ 0.5 µg/mL in each case.

As to `CNc1cc(F)cc2c1[nH]c1nc(Oc3cnc4c(c3)ncn4C3CC3)nc(N3CC(N)C3)c12` [4.364], the “MIC Ec” value against E. coli ATCC 25922 (setting [2]) stood at 4 µg/mL (≈ 8.71 µM). For the same compound, the “MIC Sa” value against S. aureus ATCC 13709 (setting [3]) was ≤0.5 µg/mL. Turning to `CNc1cc(F)cc2c1[nH]c1nc(Oc3cnc(N4CCCC4=O)nc3)nc(N3CC4C(N)C4C3)c12` (stereo not drawn) [4.345], the MIC (usually the lowest concentration found to suppress growth) was 2 µg/mL (≈ 4.09 µM) with E. coli ATCC 25922 (setting [1]) and ≤ 0.5 µg/mL against S. aureus ATCC 13709 (setting [1]).

`CNc1cc(F)cc2c1[nH]c1nc(Oc3cncnc3)nc(N3C[C@H]4CCN[C@H]4C3)c12` [4.020]: the MIC against E. coli ATCC 25922 (setting [1]) and in the assay with S. aureus ATCC 13709 (setting [1]) was ≤ 0.5 µg/mL in each case.

Turning to `CNc1cc(F)cc2c1[nH]c1nc(Oc3cnc(N)nc3)nc(N3CCCC(N)C3)c12` (stereo not drawn) [4.180], in the assay with E. coli ATCC 25922 (setting [2]), the “MIC Ec” value was 8 µg/mL (≈ 18.9 µM). Moreover, in the assay on S. aureus ATCC 13709 (setting [3]), the “MIC Sa” value turned out to be 1 µg/mL (≈ 2.36 µM). Taken in the same sequence, the figures for `CNc1cc(F)cc2c1[nH]c1nc(Oc3cnc4c(c3)ncn4C)nc(N3CC4CC3CC4N)c12` (stereo not drawn) [4.228] were 1 µg/mL (≈ 2.11 µM) and ≤0.5 µg/mL. Regarding `CNc1cc(F)cc2c1[nH]c1nc(Oc3cnc(-c4nccn4C)nc3)nc(N3C[C@H](N)C4(CC4)C3)c12` [4.399], the values for the MIC against E. coli ATCC 25922 (setting [1]) and in the assay on S. aureus ATCC 13709 (setting [1]) were 2 µg/mL (≈ 4 µM) and ≤ 0.5 µg/mL, respectively. Taken in the same sequence, the figures for `CNc1cc(F)cc2c1[nH]c1nc(Oc3ccc4c(c3)C(=O)NC4)nc(N3C[C@H](N)C4(CC4)C3)c12` [4.265] were 4 µg/mL (≈ 8.45 µM) and ≤ 0.5 µg/mL. On the same counts, the results for `CNc1ncnc2c1[nH]c1nc(Oc3cnc(C)nc3)nc(N3CC4C(N)C4C3)c12` (stereo not drawn) [7.05] are 64 µg/mL (≈ 158 µM) and 8 µg/mL (≈ 19.8 µM). Take `CNc1cc(Cl)cc2c1[nH]c1nc(Oc3cncnc3)nc(N3CC4(CC4N)C3)c12` (stereo not drawn) [6.12]: in the assay on E. coli ATCC 25922, the “MIC Ec” value was ≤0.5 µg/mL. Further, in the assay with S. aureus ATCC 13709, the “MIC Sa” value was ≤0.5 µg/mL. Turning to `CNc1cccc2c1[nH]c1nc(Oc3cnc4ccoc4c3)nc(N3CC4C(N)C4C3)c12` (stereo not drawn) [3.23], the MIC was 2 µg/mL (≈ 4.68 µM) in the assay on E. coli ATCC 25922 (setting [1]) and ≤ 0.5 µg/mL against S. aureus ATCC 13709 (setting [1]).

With `CNc1cc(F)cc2c1[nH]c1nc(Oc3cnc4c(c3)C(=O)NC4)nc(N3C[C@H](N)C4(CC4)C3)c12` [4.356], the minimum inhibitory concentration (MIC) against E. coli ATCC 25922 (setting [1]) is 4 µg/mL (≈ 8.43 µM); in the assay on S. aureus ATCC 13709 (setting [1]), ≤ 0.5 µg/mL.

Turning to `CNc1cc(F)cc2c1[nH]c1nc(Oc3cnc(N4CC(S(=O)(=O)CC5CC5)C4)nc3)nc(N3C[C@H](N)C4(CC4)C3)c12` [4.338], in the assay with E. coli ATCC 25922 (setting [2]), the “MIC Ec” value was determined as 2 µg/mL (≈ 3.37 µM). In addition, the “MIC Sa” value in the assay on S. aureus ATCC 13709 (setting [3]) was ≤0.5 µg/mL. Taken in the same sequence, the figures for `CNc1cc(F)cc2c1[nH]c1nc(Oc3cnc(C)nc3)nc(N3CC4C(N)CC(C)(C)C4C3)c12` (stereo not drawn) [4.097] were 2 µg/mL (≈ 4.2 µM) and ≤0.5 µg/mL.

As to `CCc1ncc(Oc2nc(N3CC4CC4(CN)C3)c3c(n2)[nH]c2c(NC)cc(F)cc23)cn1` (stereo not drawn) [4.261], the values for the MIC in the assay on E. coli ATCC 25922 (setting [1]) and in the assay on S. aureus ATCC 13709 (setting [1]) were 1 µg/mL (≈ 2.23 µM) and ≤ 0.5 µg/mL, respectively.

Take `CNc1cc(F)cc2c1[nH]c1nc(Oc3cnc(C)nc3)nc(NCCCN)c12` [4.108]: in the assay on E. coli ATCC 25922 (setting [2]), the “MIC Ec” value was >16 µg/mL. Besides, the “MIC Sa” value against S. aureus ATCC 13709 (setting [3]) was found to be 4 µg/mL (≈ 10.1 µM). Take `CNc1cc(F)cc2c1[nH]c1nc(Oc3cnc(N)nc3)nc(N3CCC(N)C3)c12` (stereo not drawn) [4.179]: the “MIC Ec” value against E. coli ATCC 25922 (setting [2]) is 1 µg/mL (≈ 2.44 µM). The “MIC Sa” value in the assay on S. aureus ATCC 13709 (setting [3]) is ≤0.5 µg/mL. Turning to `CCOC(=O)c1ncc(Oc2nc(N3CC4CC3C[C@@H]4N)c3c(n2)[nH]c2c(NC)cc(F)cc23)cn1` (stereo partly drawn) [4.400], the MIC in the assay on E. coli ATCC 25922 (setting [1]) and with S. aureus ATCC 13709 (setting [1]) was ≤ 0.5 µg/mL in each case. For the compound `CNc1cc(F)cc2c1[nH]c1nc(Oc3cnc(C)nc3)nc(N3CC[C@H](N)[C@@H](F)C3)c12` [4.144], the values for the minimal inhibitory concentration (MIC) with E. coli ATCC 25922 (setting [1]) and with S. aureus ATCC 13709 (setting [1]) were 1 µg/mL (≈ 2.27 µM) and ≤ 0.5 µg/mL, respectively. Taken in the same sequence, the figures for `CNc1cc(F)cc2c1[nH]c1nc(Oc3cnc(N4CCOCC4)nc3)nc(N3CCC4(CC4N)C3)c12` (stereo not drawn) [4.214] were 2 µg/mL (≈ 3.96 µM) and ≤ 0.5 µg/mL. On the same counts, the results for `CNc1cccc2c1[nH]c1nc(Oc3cnc(C)nc3)nc(N3CC4C(N)C4C3)c12` (stereo not drawn) [3.29] are ≤ 0.5 µg/mL and ≤ 0.5 µg/mL. Turning to `CNc1cccc2c1[nH]c1nc(Sc3cnc4ccc[n+]([O-])c4c3)nc(N3CC4C(N)C4C3)c12` (stereo not drawn) [1.23], the “MIC Sa” value in the assay with S. aureus ATCC 13709 (setting [3]) was ≤0.5 µg/mL. Same read-out and setting: the result for `CNc1cccc2c1[nH]c1nc(Sc3cnc4ccc[n+]([O-])c4c3)nc(N3CC4C(N)C4C3)c12` (stereo not drawn) [1.49] reads ≤0.5 µg/mL. Take `CNc1cccc2c1[nH]c1nc(Sc3cnc4ccc[n+]([O-])c4c3)nc(N3CC4C(N)C4C3)c12` (stereo not drawn) [1.71]: in the assay on S. aureus ATCC 13709 (setting [3]), the “MIC Sa” value is ≤0.5 µg/mL.
